Values quoted from earlier work as cited in patent US20020064550A1, “Edible candy compositions and methods of using same” (AkPharma, Inc., priority 2000, published 2002).
Like-named read-outs stand apart in the source and are kept apart here.

Tests used:
dental caries [1] = conditions: sugar-content diets of animals
[2] = tested on: symptoms of bladder irritants; conditions: 200 reported patients; calcium glycerophosphate taken with foods; 79.4% without calcium glycerophosphate
dental caries [3] = conditions: human children

In the case of “1,2,3-propanetriol, mono(dihydrogen phosphate) calcium salt (1:1) [calcium glycerophosphate]”, the dental caries reduction (dental caries [1]) is given as “confirm dental caries reduction”, the “over-all symptoms of bladder irritants” value [2] is given as 14.6% and the dental caries reduction (dental caries [3]) is given as “fail to confirm same”.
